Measurements taken from patent US8993756B2 (Merck Sharp & Dohme Corp., priority 2011, dated 2015).

Tests used:
JAK2 = JAK2 (Homo sapiens (Human), UniProt O60674); test: Jak Biochemical HTRF Assay (JAK2); details: recombinant GST-tagged catalytic domain, [ATP] 8.5 μM
Procedure: (§1) Biological Assays Jak Biochemical HTRF Assay Protocol
The ability of compounds to inhibit the activity of JAK1, JAK2, JAK3, and Tyk2 was measured using a recombinant purified GST-tagged catalytic domain for each enzyme (Invitrogen JAK1 #M4290, JAK2 #M4290, JAK3 #M4290, Tyk2 #M4290) in an HTRF format biochemical assay. […] The basic assay protocol is as follows: First, 250 nL of diluted compounds in DMSO were dispensed into the wells of a dry 384-well Black plate (Greiner #781076) using a Labcyte Echo 555 acoustic dispenser. Subsequent reagent additions employed an Agilent Bravo. Next, 18 μL of 1.11× enzyme and 1.11× substrate in 1× assay buffer (Invitrogen kinase buffer # PV3189, 2 mM DTT, 0.05% BSA) were added to the wells and shaken and then preincubated for 30 minutes at room temperature to allow compound binding to equilibrate. After equilibration, 2 μL of 10×ATP in 1× assay buffer was added to initiate the kinase reaction and the plates were shaken and then incubated at room temperature for 120 minutes. At the end of the incubation, 20 μL of 2× stop buffer (streptavidin-Dylight 650 (Thermo #84547B100 mL), Eu-tagged pY20 antibody (Perkin Elmer #AD0067), EDTA, HEPES, and Triton) was added to quench the reaction. Plates were shaken and centrifuged and then incubated 60 minutes at room temperature and then read on a Perkin Elmer Envision (λex=337 nm, λem=665 and 615 nm, TRF delay time=20 μs). HTRF signal=10,000*665 nm reading 615 nm reading. After normalization to untreated controls, the percent inhibition of the HTRF signal at each compound concentration was calculated. The plot of percent inhibition versus the log of compound concentration was fit with a 4-parameter dose response equation to calculate IC50 values.

JAK3 = JAK3 (Homo sapiens (Human), UniProt P52333); test: Jak Biochemical HTRF Assay (JAK3); details: recombinant GST-tagged catalytic domain, [ATP] 2.9 μM
Chain of JAK3 (P52333 822-1111): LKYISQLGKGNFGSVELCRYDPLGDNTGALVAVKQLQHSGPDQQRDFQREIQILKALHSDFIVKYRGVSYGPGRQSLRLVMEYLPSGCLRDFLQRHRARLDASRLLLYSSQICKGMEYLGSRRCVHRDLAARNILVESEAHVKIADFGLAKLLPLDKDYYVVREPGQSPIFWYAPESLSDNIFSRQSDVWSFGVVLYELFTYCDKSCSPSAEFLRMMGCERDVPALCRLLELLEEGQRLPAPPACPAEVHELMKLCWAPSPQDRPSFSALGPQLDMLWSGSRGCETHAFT
Procedure: as §1
The ability of compounds to inhibit the activity of JAK1, JAK2, JAK3, and Tyk2 was measured using a recombinant purified GST-tagged catalytic domain for each enzyme (Invitrogen JAK1 #M4290, JAK2 #M4290, JAK3 #M4290, Tyk2 #M4290) in an HTRF format biochemical assay. […] Subsequent reagent additions employed an Agilent Bravo. […] After equilibration, 2 μL of 10×ATP in 1× assay buffer was added to initiate the kinase reaction and the plates were shaken and then incubated at room temperature for 120 minutes. At the end of the incubation, 20 μL of 2× stop buffer (streptavidin-Dylight 650 (Thermo #84547B100 mL), Eu-tagged pY20 antibody (Perkin Elmer #AD0067), EDTA, HEPES, and Triton) was added to quench the reaction. […] After normalization to untreated controls, the percent inhibition of the HTRF signal at each compound concentration was calculated. The plot of percent inhibition versus the log of compound concentration was fit with a 4-parameter dose response equation to calculate IC50 values.

Chain of JAK2 (O60674 849-1124): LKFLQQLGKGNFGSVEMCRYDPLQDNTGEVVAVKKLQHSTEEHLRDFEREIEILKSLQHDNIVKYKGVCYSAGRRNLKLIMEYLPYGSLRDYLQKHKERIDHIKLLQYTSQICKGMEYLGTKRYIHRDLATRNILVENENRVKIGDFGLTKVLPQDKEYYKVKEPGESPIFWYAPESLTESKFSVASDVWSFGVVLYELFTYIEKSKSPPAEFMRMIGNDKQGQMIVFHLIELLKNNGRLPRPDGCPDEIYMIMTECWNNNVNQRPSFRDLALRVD

Row | IC50 (JAK2) [nM] | IC50 (JAK3) [nM] | IC50 (JAK2; given as range class) [nM] | IC50 (JAK3; given as range class) [nM] | Structure (SMILES)
1 | 54 | 4.8 | – | – | CCOC(=O)c1c[nH]c2ncnc(-c3cc4ccccc4s3)c12 [Example 1-50, ethyl 4-(1-benzothiophen-2-yl)-7H-pyrrolo[2,3-d]pyrimidine-5-carboxylate]
2 | – | – | > 500 | 10 to 500 | CCOC(=O)c1c[nH]c2ncnc(-c3cn[nH]c3)c12 [Example 1-51, ethyl 4-(1H-pyrazol-4-yl)-7H-pyrrolo[2,3-d]pyrimidine-5-carboxylate]
3 | 35 | 1.5 | – | – | CCOC(=O)c1c[nH]c2ncnc(-c3ccc4[nH]ccc4c3)c12 [Example 1-53, ethyl 4-(1H-indol-5-yl)-7H-pyrrolo[2,3-d]pyrimidine-5-carboxylate]
4 | 61 | 4 | – | – | CCOC(=O)c1c[nH]c2ncnc(-c3cc4ccccc4o3)c12 [Example 1-54, ethyl 4-(1-benzofuran-2-yl)-7H-pyrrolo[2,3-d]pyrimidine-5-carboxylate]
5 | – | – | > 500 | 10 to 500 | CCOC(=O)c1c[nH]c2ncnc(-c3ccccc3N)c12 [Example 1-55, ethyl 4-(2-aminophenyl)-7H-pyrrolo[2,3-d]pyrimidine-5-carboxylate]
6 | – | – | 10 to 500 | 10 to 500 | CCOC(=O)c1c[nH]c2ncnc(-c3cccs3)c12 [Example 1-56, ethyl 4-thiophen-2-yl-7H-pyrrolo[2,3-d]pyrimidine-5-carboxylate]
7 | – | – | 10 to 500 | 10 to 500 | CCOC(=O)c1c[nH]c2ncnc(-c3ccsc3)c12 [Example 1-57, ethyl 4-thiophen-3-yl-7H-pyrrolo[2,3-d]pyrimidine-5-carboxylate]
8 | – | – | > 500 | 10 to 500 | CCOC(=O)c1c[nH]c2ncnc(-c3ccc(CO)nc3)c12 [Example 1-58, ethyl 4-[6-(hydroxymethyl)pyridin-3-yl]-7H-pyrrolo[2,3-d]pyrimidine-5-carboxylate]
9 | – | – | 10 to 500 | 10 to 500 | CCOC(=O)c1c[nH]c2ncnc(-c3cccc(OC(F)F)c3)c12 [Example 1-59, ethyl 4-[3-(difluoromethoxy)phenyl]-7H-pyrrolo[2,3-d]pyrimidine-5-carboxylate]
10 | – | – | > 500 | 10 to 500 | CCOC(=O)c1c[nH]c2ncnc(-c3ccnc(CO)c3)c12 [Example 1-60, ethyl 4-[2-(hydroxymethyl)pyridin-4-yl]-7H-pyrrolo[2,3-d]pyrimidine-5-carboxylate]
11 | – | – | > 500 | 10 to 500 | CCOC(=O)c1c[nH]c2ncnc(-c3cccc4ccsc34)c12 [Example 1-61, ethyl 4-(1-benzothiophen-7-yl)-7H-pyrrolo[2,3-d]pyrimidine-5-carboxylate]
12 | – | – | > 500 | 10 to 500 | CCOC(=O)c1c[nH]c2ncnc(-c3cnn4c3CCCC4)c12 [Example 1-62, ethyl 4-(4,5,6,7-tetrahydropyrazolo[1,5-a]pyridin-3-yl)-7H-pyrrolo[2,3-d]pyrimidine-5-carboxylate]
13 | – | – | > 500 | 10 to 500 | CCOC(=O)c1c[nH]c2ncnc(-c3coc4ccccc34)c12 [Example 1-63, ethyl 4-(1-benzofuran-3-yl)-7H-pyrrolo[2,3-d]pyrimidine-5-carboxylate]
14 | – | – | > 500 | 10 to 500 | CCOC(=O)c1c[nH]c2ncnc(-c3cccc4[nH]ncc34)c12 [Example 1-64, ethyl 4-(1H-indazol-4-yl)-7H-pyrrolo[2,3-d]pyrimidine-5-carboxylate]
15 | – | – | 10 to 500 | 10 to 500 | CCOC(=O)c1c[nH]c2ncnc(-c3ccc4c(c3)CNC4=O)c12 [Example 1-65, ethyl 4-(1-oxo-2,3-dihydro-1H-isoindol-5-yl)-7H-pyrrolo[2,3-d]pyrimidine-5-carboxylate]
16 | – | – | > 500 | 10 to 500 | CCOC(=O)c1c[nH]c2ncnc(-c3ccc4c(c3)n(C)c(=O)n4C)c12 [Example 1-66, ethyl 4-(1,3-dimethyl-2-oxo-2,3-dihydro-1H-benzimidazol-5-yl)-7H-pyrrolo[2,3-d]pyrimidine-5-carboxylate]
17 | – | – | > 500 | 10 to 500 | CCOC(=O)c1c[nH]c2ncnc(-c3ccc4nnn(C)c4c3)c12 [Example 1-67, ethyl 4-(1-methyl-1H-benzotriazol-6-yl)-7H-pyrrolo[2,3-d]pyrimidine-5-carboxylate]
18 | – | – | > 500 | 10 to 500 | CCOC(=O)c1c[nH]c2ncnc(-c3cccc4c3CCCNC4=O)c12 [Example 1-68, ethyl 4-(1-oxo-2,3,4,5-tetrahydro-1H-2-benzazepin-6-yl)-7H-pyrrolo[2,3-d]pyrimidine-5-carboxylate]
19 | 98 | 6.5 | – | – | CCOC(=O)c1c[nH]c2ncnc(-c3ccc4[nH]ncc4c3)c12 [Example 1-69, ethyl 4-(1H-indazol-5-yl)-7H-pyrrolo[2,3-d]pyrimidine-5-carboxylate]
20 | – | – | > 500 | 10 to 500 | CCOC(=O)c1c[nH]c2ncnc(-c3csc4ccccc34)c12 [Example 1-71, ethyl 4-(1-benzothiophen-3-yl)-7H-pyrrolo[2,3-d]pyrimidine-5-carboxylate]
21 | – | – | > 500 | 10 to 500 | CCOC(=O)c1c[nH]c2ncnc(-c3ccc4[nH]nc(C(F)(F)F)c4c3)c12 [Example 1-72, ethyl 4-[3-(trifluoromethyl)-1H-indazol-5-yl]-7H-pyrrolo[2,3-d]pyrimidine-5-carboxylate]
22 | – | – | > 500 | 10 to 500 | CCOC(=O)c1c[nH]c2ncnc(-c3cccc4c3CNC4=O)c12 [Example 1-73, ethyl 4-(1-oxo-2,3-dihydro-1H-isoindol-4-yl)-7H-pyrrolo[2,3-d]pyrimidine-5-carboxylate]
23 | – | – | > 500 | 10 to 500 | CCOC(=O)c1c[nH]c2ncnc(-c3ccc4c(c3)CCN(C(=O)OC(C)(C)C)C4)c12 [Example 1-74, tent-butyl 6-[5-(ethoxycarbonyl)-7H-pyrrolo[2,3-d]pyrimidin-4-yl]-3,4-dihydroisoquinoline-2(1H)-carboxylate]
24 | – | – | > 500 | 10 to 500 | CCOC(=O)c1c[nH]c2ncnc(-c3ccc4c(c3)C(=O)NC4)c12 [Example 1-75, ethyl 4-(3-oxo-2,3-dihydro-1H-isoindol-5-yl)-7H-pyrrolo[2,3-d]pyrimidine-5-carboxylate]
25 | – | – | 10 to 500 | 10 to 500 | CCOC(=O)c1c[nH]c2ncnc(-c3ccc4cn[nH]c4c3)c12 [Example 1-76, ethyl 4-(1H-indazol-6-yl)-7H-pyrrolo[2,3-d]pyrimidine-5-carboxylate]
26 | – | – | > 500 | 10 to 500 | CCOC(=O)c1c[nH]c2ncnc(-c3ccc4c(c3)CN(C(=O)OC(C)(C)C)CC4)c12 [Example 1-78, tert-butyl 7-[5-(ethoxycarbonyl)-7H-pyrrolo[2,3-d]pyrimidin-4-yl]-3,4-dihydroisoquinoline-2(1H)-carboxylate]
27 | – | – | > 500 | 10 to 500 | CCOC(=O)c1c[nH]c2ncnc(-c3ccc4c(c3)CN(C(=O)OC(C)(C)C)CCO4)c12 [Example 1-79, tent-butyl 7-[5-(ethoxycarbonyl)-7H-pyrrolo[2,3-d]pyrimidin-4-yl]-2,3-dihydro-1,4-benzoxazepine-4(5H)-carboxylate]
28 | 53 | 2.3 | – | – | CCOC(=O)c1c[nH]c2ncnc(-c3ccc(N)cc3)c12 [Example 1-80, ethyl 4-(4-aminophenyl)-7H-pyrrolo[2,3-d]pyrimidine-5-carboxylate]
29 | – | – | > 500 | 10 to 500 | CCOC(=O)c1c[nH]c2ncnc(-c3ccn[nH]3)c12 [Example 1-81, ethyl 4-(1H-pyrazol-5-yl)-7H-pyrrolo[2,3-d]pyrimidine-5-carboxylate]
30 | – | – | 10 to 500 | 10 to 500 | CCOC(=O)c1c[nH]c2ncnc(-c3ccc4scnc4c3)c12 [Example 1-82, ethyl 4-(1,3-benzothiazol-5-yl)-7H-pyrrolo[2,3-d]pyrimidine-5-carboxylate]

Row | Structure (SMILES) | IC50 (JAK2) [nM] | IC50 (JAK3) [nM] | IC50 (JAK2; given as range class) [nM] | IC50 (JAK3; given as range class) [nM]
31 | CCOC(=O)c1c[nH]c2ncnc(-c3ccc4c(c3)CN(C(=O)OC(C)(C)C)C4=O)c12 [Example 1-77, ethyl 4-[2-(tert-butoxycarbonyl)-1-oxo-2,3-dihydro-1H-isoindol-5-yl]-7H-pyrrolo[2,3-d]pyrimidine-5-carboxylate] | – | – | > 500 | 10 to 500
